Paper PMC9143577, “Cationic Geminoid Peptide Amphiphiles Inhibit DENV2 Protease, Furin, and Viral Replication” (Molecules, 2022)
“Also recorded” adds a separate entry of the source. Where a SMILES comes first, the peptide text is derived from it. The star is where a group is joined. Palmitoyl = CCCCCCCCCCCCCCCC(=O)*; NHhexadecyl = CCCCCCCCCCCCCCCCN*; AMC = Cc1cc(=O)oc2cc(N*)ccc12; Cbz = O=C(OCc1ccccc1)*

What was measured:
human furin = human furin (Homo sapiens, UniProt P09958)
[1] = target: DENV2 protease (NS2B-NS3 construct CF40-…-NS3) (dengue virus serotype 2)
trypsin [2] = target: trypsin
DENV2 protease = DENV2 protease (Dengue virus type 2, UniProt P14340); parameters: the vector with CF40 fused to NS3pro was used; hexahistidine (N); made in house; host or cells: E. coli strain SG13009; method as in PMID 17184724; settings: ref [23], cited from earlier work
Chain of DENV2 protease (P14340 1476-1653): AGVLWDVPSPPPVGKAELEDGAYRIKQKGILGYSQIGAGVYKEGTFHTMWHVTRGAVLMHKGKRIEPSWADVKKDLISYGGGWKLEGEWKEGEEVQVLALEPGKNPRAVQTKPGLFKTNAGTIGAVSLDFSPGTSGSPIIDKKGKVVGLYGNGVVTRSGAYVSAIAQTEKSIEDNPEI
Chain of DENV2 protease (P14340 1398-1437): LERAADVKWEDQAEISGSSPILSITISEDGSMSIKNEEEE

[3] = system: DENV2 HeLa replicon cells; settings: 2 days, 0.3 to 10 µM
Description: (§1) To investigate the effect of geminoids on viral replication, we used HeLa cells containing a DENV2 replicon. Instead of the structural proteins of DENV2, the replicon encodes a luciferase reporter that can be used as a readout for DENV2 protease dependent virus replication. Cell viability was assessed on the same cells using a colourimetric assay based on 3-(4,5-dimethylthiazol-2-yl)-5-(3-carboxymethoxyphenyl)-2H-tetrazolium (MTS) reduction, and by light microscopy. […] The viability of unmodified HeLa cells after treatment with these compounds was also tested in a separate experiment using the Celltiter Blue Viability Assay (Promega, see Supporting Information) in the concentration range of 0.8–50 μM.
(§2) The replicon assay was carried out as described earlier using HeLa cells that contain a stably replicating DENV2 replicon expressing a luciferase reporter gene. The amphiphilic inhibitors were added as concentrated solutions in DMSO; the same amount of DMSO was used as the blank experiment, with the viral inhibitor ribavirin as a positive control. Luciferase activity and cell viability were assessed as described previously.

[4] = Critical micelle concentration by pyrene fluorescence; format: physicochemical; settings: pure water
Description: Pyrene was used as a probe to study the changes in its fluorescence, in particular the ratio (I1/I3) of the intensities I1 and I3 […] 373 and 383 nm, respectively. An abrupt change in this ratio with increasing surfactant concentration points to an increase in hydrophobicity of the environment of the probe corresponding to the formation of aggregates. See Supporting Information for details.
Determ ination of the critical m icelle concentrat ion (CMC)
A solution of 5 mg pyrene in methanol (10 mL) was prepared and diluted 20 times. 50 µ L from the dil uted solution was added to geminoid solutions in water to a final volume of 3 mL. The geminoid samples were made from a stock solution of 500 µ M in water in a concentration range from 5 to 200 µ M. The fluorescence spectra were then measured after 1 hour wi th the […] set to 334 nm and emission range 350- 500 nm, excitation slit […], emission slit […] and at 25 °C. The ratio of the intensities was then plotted against the geminoid concentration, and the CMC is calculated from the intersection point of the best fits to the data points below and above it (Fig ure S5).
(§3) Concentration (µM) Concentration (µM)
Concentration (µM)Concentration (µM) Concentration (µM)Concentration (µM)
(1 picture or pasted object on this page, not shown here)

[5] = system: wildtype DENV2 (DENV2 NGC); format: cell-based, DENV2 New Guinea strain; settings: percentage of infected cells, 2 days after infection
Description: LLC-MK2 (Monkey Rhesus Kidney cells; CCL-7.1) were passaged in assay medium (EMEM (Lonza Cat No: BESP069F) supplemented with 10% heat-inactivated FCS (Lonza), 2% Pen/strep (Gibco), 2% L-Glutamine (Gibco), 2% Hepes (Lonza), and 1% sodium bicarbonate (Lonza)) prior to use in the antiviral assay. Cells were seeded in 96-well plates (10^5 cells/well) in assay medium to be exposed 16–24 h later to compounds and viruses. The plates were incubated at 37 °C/5% CO2 overnight to allow for cell adherence.
Compounds were solubilized in DMSO and evaluated using two-fold serial dilutions (8-points dose-response curves starting at a concentration of 50 µM) in duplicate for the antiviral assays. Compounds were diluted in assay medium at 1× test concentrations. Ribavirin (Sigma Aldrich, Amsterdam, The Netherlands) was evaluated as a positive control compound in the antiviral assays.
DENV2 New Guinea strain was grown in AP-61 insect cells (in-house cell bank) in complete Leibovitz medium containing 1% pen/strep (Gibco), 1% L-glutamin (Gibco), 0.5% Hepes (Lonza), 0.5% sodium bicarbonate (Lonza), and 10% tryptose phosphate for the production of stock virus pools. On the day of cellular infection, an aliquot of virus was removed from the freezer (−80 °C) and allowed to thaw in water in a biological safety cabinet. Virus was diluted into assay medium (10^4 TCID50), and 100 µL of this was added to each well, resulting in a TCID50 of 100. Cells were incubated for 2 h at 37 °C/5% CO2 and washed 3 times with blank assay medium. Directly after washing, 100 µL of the compound dilutions were added to each well.
Each plate contained cell control wells (cells only), virus control wells (cells plus virus), duplicate drug toxicity wells per compound (cells plus drug only), as well as duplicate experimental wells (drug plus cells plus virus).
Virus-infected cells were visualised using a DENV2 immunoperoxidase staining protocol. Two days after infection, cells were inactivated with ethanol 70% for 30 min and washed with PBS. Fixed plates were incubated with PBS containing 0.05% H2O2 for 20 min at 37 °C and washed again 3 times with PBS. Plates were incubated for 1 h with 50 µL monoclonal anti-DENV-2 NS1 antibody (Millipore; diluted 1:500 in EMEM). Samples were washed once with PBS containing 0.05% Tween20 and twice with PBS only. Secondary polyclonal goat anti-mouse IgG HRP (Dako; diluted 1:2000) was added 50 µL per well and incubated for 1 h at 37 °C in the dark. […] Bidest water was added after removal of the substrate solution, and all virus-positive cells per well (marked by brown/red staining) were counted under a microscope. […]

HeLa cells (wildtype) = assay: Celltiter Blue Viability Assay on unmodified HeLa cells; settings: 24 h, 0.8–50 μM, highest concentration
Description: as §1, §3

DENV2 replicon = settings: 10 µM; DENV2 HeLa replicon cells treated for 2 days
Description: as §1, §2

trypsin [6] = assay: Trypsin inhibition assay with Z-FR-MCA; format: biochemical; settings: 4 nM trypsin, 11.4 μM Z-FR-MCA; 100 mM Tris.HCl, pH 8.0, 10 mM CaCl2; read-out: IC50 (MCA Substrates) Trypsin
Description: The assay was carried out in 100 mM Tris.HCl, 10 mM CaCl2, pH 8.0, with 4 nM enzyme and 11.4 µM Z-FR-MCA substrate.

Chain of human furin (P09958 27-794): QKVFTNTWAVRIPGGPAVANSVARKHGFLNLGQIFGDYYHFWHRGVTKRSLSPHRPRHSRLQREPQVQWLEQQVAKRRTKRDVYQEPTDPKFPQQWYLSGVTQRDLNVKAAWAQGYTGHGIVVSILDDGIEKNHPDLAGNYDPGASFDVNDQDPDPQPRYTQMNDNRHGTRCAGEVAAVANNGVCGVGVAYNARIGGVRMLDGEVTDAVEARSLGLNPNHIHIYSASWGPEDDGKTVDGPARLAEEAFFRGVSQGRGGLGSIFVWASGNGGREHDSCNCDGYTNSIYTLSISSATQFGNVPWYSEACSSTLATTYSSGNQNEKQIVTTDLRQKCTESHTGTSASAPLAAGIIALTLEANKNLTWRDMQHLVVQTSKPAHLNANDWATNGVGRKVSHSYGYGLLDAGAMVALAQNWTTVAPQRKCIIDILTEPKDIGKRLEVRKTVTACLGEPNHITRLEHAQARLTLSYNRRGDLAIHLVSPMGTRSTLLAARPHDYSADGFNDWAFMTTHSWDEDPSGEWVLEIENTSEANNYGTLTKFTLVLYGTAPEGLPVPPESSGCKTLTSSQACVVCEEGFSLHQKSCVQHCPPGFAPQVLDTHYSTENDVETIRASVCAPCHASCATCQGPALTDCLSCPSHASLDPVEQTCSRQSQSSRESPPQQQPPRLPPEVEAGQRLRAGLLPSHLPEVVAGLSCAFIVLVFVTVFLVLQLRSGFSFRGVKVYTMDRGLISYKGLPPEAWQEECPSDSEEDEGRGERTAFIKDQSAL

C15H31C(O)-Lys-(Ala)-Lys-NHC16H33 (C16-KAK-C16) (peptide)
IC50 of inhibition of furin activity (0.76 nM furin, substrate Ac-RVRR-MCA, 10 mM MES pH 7.0, 37 °C) (human furin): 3.57 µM
IC50 of inhibition of DENV2 protease activity (20 nM enzyme, substrate Z-RR-MCA, 50 mM Tris.HCl pH 9.0, 20% glycerol, 37 °C) [1]: 0.66 µM
IC50 of inhibition of DENV2 protease activity (50 µM Tyr(3-NO2) substrate, 50 mM Tris.HCl pH 9.0, 10% ethylene glycol, 0.0016% Brij 58) [1]: 2.3 µM
IC50 of inhibition of trypsin activity (4 nM trypsin, 11.4 µM Z-FR-MCA, 100 mM Tris.HCl pH 8.0, 10 mM CaCl2) (trypsin [2]): 17.2 µM

Cbz-Arg-Arg-{AMC}
kcat for hydrolysis of the substrate (DENV2 protease): 0.11 s⁻¹
Km (DENV2 protease; read-out: KM for hydrolysis of the substrate): 247 µM

CCCCCCCCCCCCCCCCNC(=O)[C@H](CCCCN)NC(=O)CNC(=O)CNC(=O)[C@H](CCCCN)NC(=O)CCCCCCCCCCCCCCC [Compound 3b] (Palmitoyl-KGGK-NHhexadecyl)
cell viability (MTS assay), relative to DMSO control [3]: considerable cytotoxicity
CMC (Critical Micelle Concentration) [4]: 30 µM
DENV Replication in LLC-MK2 Cells EC50 [5]: not active
toxicity in Celltiter Blue Viability Assay (HeLa cells (wildtype)): slight toxicity; also recorded: slight toxicities

C15H31C(O)-Lys-Lys-NHC16H33 (C16-KK-C16) (peptide)
IC50 of inhibition of DENV2 protease activity (20 nM enzyme, substrate Z-RR-MCA, 50 mM Tris.HCl pH 9.0, 20% glycerol, 37 °C) [1]: 4.25 µM
IC50 of inhibition of trypsin activity (4 nM trypsin, 11.4 µM Z-FR-MCA, 100 mM Tris.HCl pH 8.0, 10 mM CaCl2) (trypsin [2]): 85.7 µM

CCCCCCCCCCCCCCCCNC(=O)[C@H](CCCCN)NC(=O)CNC(=O)[C@H](CCCCN)NC(=O)CCCCCCCCCCCCCCC [Compound 3a]
inhibition of luciferase activity (DENV2 replicon) (DENV2 replicon): 38%
IC50 (trypsin [6]): 41 ± 2 µM
CMC (Critical Micelle Concentration) [4]: 55 to 72 µM
EC50 ([5]; LLC-MK2 cells, read-out: DENV Replication in LLC-MK2 Cells EC50): 12.7 ± 1.1 µM
